Reference: paper PMC8933826 (EBioMedicine, 2022)

Assays:
[1] = molecular target: Tet(X3); test: biolayer interferometry; assay type: binding, Acinetobacter baumannii
[2] = molecular target: Tet(X4) (Escherichia coli, UniProt A0A3T0V9Y5); test: biolayer interferometry; assay type: binding
Chain of Tet(X4) (A0A3T0V9Y5 1-385): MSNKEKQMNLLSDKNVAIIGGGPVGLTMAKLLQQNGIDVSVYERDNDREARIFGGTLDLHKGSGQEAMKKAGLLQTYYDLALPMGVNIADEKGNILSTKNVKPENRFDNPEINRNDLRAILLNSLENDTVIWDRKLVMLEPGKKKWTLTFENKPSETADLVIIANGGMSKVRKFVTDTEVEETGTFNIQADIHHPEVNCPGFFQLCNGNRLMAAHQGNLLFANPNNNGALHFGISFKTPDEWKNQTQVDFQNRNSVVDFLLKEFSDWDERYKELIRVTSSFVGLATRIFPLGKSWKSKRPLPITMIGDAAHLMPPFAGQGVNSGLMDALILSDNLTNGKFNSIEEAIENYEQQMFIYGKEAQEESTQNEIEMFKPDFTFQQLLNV

CC1=CC(=O)c2c(O)cccc2C1=O [plumbagin]
Kd [1]: 200 µM | Kd [2]: 1600 µM
